In article PMC12446476 (Nature Communications, 2025):
Read-outs that look alike come from different tables or passages of the source.

System: N. gonorrhoeae
Assay: MIC determination, Etest
Format: cell-based, Neisseria gonorrhoeae
Details: for MIC: Neisseria gonorrhoeae
Source text: The 2024 WHO N. gonorrhoeae reference strains were used for quality control. Only whole MIC doubling dilutions are reported. Clinical breakpoints or the epidemiological cutoff (ECOFF, to indicate azithromycin resistance) from EUCAST (v14.0, https://www.eucast.org/clinical_breakpoints) were used to classify isolates as antimicrobial susceptible or resistant. […] Two times the standard inoculum defined by CLSI was used to establish consistent growth in untreated control samples for some strains. In vitro time-kill assays were performed according to CLSI guidelines[65] using Columbia Broth (BD Difco) supplemented with 1% IsoVitaleX Enrichment (BD). Viable bacterial counts were generated by plating 10-fold serially diluted samples on GC agar plates containing 1% IsoVitaleX Enrichment (BD).

CC[C@H]1OC(=O)[C@H](C)[C@@H](O[C@H]2C[C@@](C)(OC)[C@@H](O)[C@H](C)O2)[C@H](C)[C@@H](O[C@@H]2O[C@H](C)C[C@H](N(C)C)[C@H]2O)[C@](C)(O)C[C@@H](C)CN(C)[C@H](C)[C@@H](O)[C@]1(C)O [Azithromycin]
4 µg/mL: MIC (WHO P, Etest, read-out: MIC) | MIC (WHO U, Etest, read-out: MIC)
< 256 µg/mL: MIC (WHO Q, Etest, read-out: MIC)
2%: percent of isolates resistant (100 contemporary clinical N. gonorrhoeae isolates, EUCAST)
S: AMR phenotype (susceptibility category, EUCAST) (WHO F) | AMR phenotype (susceptibility category, EUCAST) (WHO H) | AMR phenotype (susceptibility category, EUCAST) (WHO K) | AMR phenotype (susceptibility category, EUCAST) (WHO L) | AMR phenotype (susceptibility category, EUCAST) (WHO M) | AMR phenotype (susceptibility category, EUCAST) (WHO O) | AMR phenotype (susceptibility category, EUCAST) (WHO R) | AMR phenotype (susceptibility category, EUCAST) (WHO X) | AMR phenotype (susceptibility category, EUCAST) (WHO Y) | AMR phenotype (susceptibility category, EUCAST) (WHO Z)
1 µg/mL: MIC (WHO L, Etest, read-out: MIC) | MIC (WHO Y, Etest, read-out: MIC) | MIC (WHO Z, Etest, read-out: MIC)
0.064 µg/mL: MIC (comparator antibiotics, clinical N. gonorrhoeae isolate 5, Sweden 2023, read-out: Minimum inhibitory concentration) | MIC (comparator antibiotics, clinical N. gonorrhoeae isolate 6, Sweden 2023, read-out: Minimum inhibitory concentration) | MIC (comparator antibiotics, clinical N. gonorrhoeae isolate 8, Sweden 2023, read-out: Minimum inhibitory concentration) | MIC (comparator antibiotics, clinical N. gonorrhoeae isolate 13, Sweden 2023, read-out: Minimum inhibitory concentration) | MIC (comparator antibiotics, clinical N. gonorrhoeae isolate 14, Sweden 2023, read-out: Minimum inhibitory concentration) | MIC (comparator antibiotics, clinical N. gonorrhoeae isolate 25, Sweden 2023, read-out: Minimum inhibitory concentration) | MIC (comparator antibiotics, clinical N. gonorrhoeae isolate 31, Sweden 2023, read-out: Minimum inhibitory concentration) | MIC (comparator antibiotics, clinical N. gonorrhoeae isolate 32, Sweden 2023, read-out: Minimum inhibitory concentration) | MIC (comparator antibiotics, clinical N. gonorrhoeae isolate 40, Sweden 2023, read-out: Minimum inhibitory concentration) | MIC (comparator antibiotics, clinical N. gonorrhoeae isolate 45, Sweden 2023, read-out: Minimum inhibitory concentration) | MIC (comparator antibiotics, clinical N. gonorrhoeae isolate 51, Sweden 2023, read-out: Minimum inhibitory concentration) | MIC (comparator antibiotics, clinical N. gonorrhoeae isolate 57, Sweden 2023, read-out: Minimum inhibitory concentration) | MIC (comparator antibiotics, clinical N. gonorrhoeae isolate 59, Sweden 2023, read-out: Minimum inhibitory concentration) | MIC (comparator antibiotics, clinical N. gonorrhoeae isolate 65, Sweden 2023, read-out: Minimum inhibitory concentration) | MIC (comparator antibiotics, clinical N. gonorrhoeae isolate 68, Sweden 2023, read-out: Minimum inhibitory concentration) | MIC (comparator antibiotics, clinical N. gonorrhoeae isolate 73, Sweden 2023, read-out: Minimum inhibitory concentration) | MIC (comparator antibiotics, clinical N. gonorrhoeae isolate 77, Sweden 2023, read-out: Minimum inhibitory concentration) | MIC (comparator antibiotics, clinical N. gonorrhoeae isolate 79, Sweden 2023, read-out: Minimum inhibitory concentration) | MIC (comparator antibiotics, clinical N. gonorrhoeae isolate 98, Sweden 2023, read-out: Minimum inhibitory concentration) | MIC (comparator antibiotics, clinical N. gonorrhoeae isolate 99, Sweden 2023, read-out: Minimum inhibitory concentration) | MIC (comparator antibiotics, clinical N. gonorrhoeae isolate 100, Sweden 2023, read-out: Minimum inhibitory concentration)
0.125 µg/mL: MIC (comparator antibiotics, clinical N. gonorrhoeae isolate 2, Sweden 2023, read-out: Minimum inhibitory concentration) | MIC (comparator antibiotics, clinical N. gonorrhoeae isolate 7, Sweden 2023, read-out: Minimum inhibitory concentration) | MIC (comparator antibiotics, clinical N. gonorrhoeae isolate 10, Sweden 2023, read-out: Minimum inhibitory concentration) | MIC (comparator antibiotics, clinical N. gonorrhoeae isolate 12, Sweden 2023, read-out: Minimum inhibitory concentration) | MIC (comparator antibiotics, clinical N. gonorrhoeae isolate 22, Sweden 2023, read-out: Minimum inhibitory concentration) | MIC (comparator antibiotics, clinical N. gonorrhoeae isolate 23, Sweden 2023, read-out: Minimum inhibitory concentration) | MIC (comparator antibiotics, clinical N. gonorrhoeae isolate 27, Sweden 2023, read-out: Minimum inhibitory concentration) | MIC (comparator antibiotics, clinical N. gonorrhoeae isolate 30, Sweden 2023, read-out: Minimum inhibitory concentration) | MIC (comparator antibiotics, clinical N. gonorrhoeae isolate 33, Sweden 2023, read-out: Minimum inhibitory concentration) | MIC (comparator antibiotics, clinical N. gonorrhoeae isolate 34, Sweden 2023, read-out: Minimum inhibitory concentration) | MIC (comparator antibiotics, clinical N. gonorrhoeae isolate 37, Sweden 2023, read-out: Minimum inhibitory concentration) | MIC (comparator antibiotics, clinical N. gonorrhoeae isolate 39, Sweden 2023, read-out: Minimum inhibitory concentration) | MIC (comparator antibiotics, clinical N. gonorrhoeae isolate 47, Sweden 2023, read-out: Minimum inhibitory concentration) | MIC (comparator antibiotics, clinical N. gonorrhoeae isolate 48, Sweden 2023, read-out: Minimum inhibitory concentration) | MIC (comparator antibiotics, clinical N. gonorrhoeae isolate 53, Sweden 2023, read-out: Minimum inhibitory concentration) | MIC (comparator antibiotics, clinical N. gonorrhoeae isolate 58, Sweden 2023, read-out: Minimum inhibitory concentration) | MIC (comparator antibiotics, clinical N. gonorrhoeae isolate 61, Sweden 2023, read-out: Minimum inhibitory concentration) | MIC (comparator antibiotics, clinical N. gonorrhoeae isolate 70, Sweden 2023, read-out: Minimum inhibitory concentration) | MIC (comparator antibiotics, clinical N. gonorrhoeae isolate 72, Sweden 2023, read-out: Minimum inhibitory concentration) | MIC (comparator antibiotics, clinical N. gonorrhoeae isolate 76, Sweden 2023, read-out: Minimum inhibitory concentration) | MIC (comparator antibiotics, clinical N. gonorrhoeae isolate 80, Sweden 2023, read-out: Minimum inhibitory concentration) | MIC (comparator antibiotics, clinical N. gonorrhoeae isolate 85, Sweden 2023, read-out: Minimum inhibitory concentration) | MIC (comparator antibiotics, clinical N. gonorrhoeae isolate 86, Sweden 2023, read-out: Minimum inhibitory concentration) | MIC (comparator antibiotics, clinical N. gonorrhoeae isolate 87, Sweden 2023, read-out: Minimum inhibitory concentration) | MIC (comparator antibiotics, clinical N. gonorrhoeae isolate 90, Sweden 2023, read-out: Minimum inhibitory concentration)
R: AMR phenotype (susceptibility category, EUCAST) (WHO P) | AMR phenotype (susceptibility category, EUCAST) (WHO Q) | AMR phenotype (susceptibility category, EUCAST) (WHO S2) | AMR phenotype (susceptibility category, EUCAST) (WHO U) | AMR phenotype (susceptibility category, EUCAST) (WHO V)
> 256 µg/mL: MIC (WHO V, Etest, read-out: MIC)
0.016 µg/mL: MIC (comparator antibiotics, clinical N. gonorrhoeae isolate 28, Sweden 2023, read-out: Minimum inhibitory concentration) | MIC (comparator antibiotics, clinical N. gonorrhoeae isolate 62, Sweden 2023, read-out: Minimum inhibitory concentration)
0.032 µg/mL: MIC (comparator antibiotics, clinical N. gonorrhoeae isolate 18, Sweden 2023, read-out: Minimum inhibitory concentration) | MIC (comparator antibiotics, clinical N. gonorrhoeae isolate 38, Sweden 2023, read-out: Minimum inhibitory concentration) | MIC (comparator antibiotics, clinical N. gonorrhoeae isolate 42, Sweden 2023, read-out: Minimum inhibitory concentration) | MIC (comparator antibiotics, clinical N. gonorrhoeae isolate 46, Sweden 2023, read-out: Minimum inhibitory concentration) | MIC (comparator antibiotics, clinical N. gonorrhoeae isolate 83, Sweden 2023, read-out: Minimum inhibitory concentration) | MIC (comparator antibiotics, clinical N. gonorrhoeae isolate 91, Sweden 2023, read-out: Minimum inhibitory concentration) | MIC (comparator antibiotics, clinical N. gonorrhoeae isolate 93, Sweden 2023, read-out: Minimum inhibitory concentration) | MIC (comparator antibiotics, clinical N. gonorrhoeae isolate 94, Sweden 2023, read-out: Minimum inhibitory concentration)
0.5 µg/mL: MIC (WHO K, Etest, read-out: MIC) | MIC (WHO M, Etest, read-out: MIC) | MIC (WHO O, Etest, read-out: MIC) | MIC (WHO R, Etest, read-out: MIC) | MIC (WHO X, Etest, read-out: MIC) | MIC (comparator antibiotics, clinical N. gonorrhoeae isolate 4, Sweden 2023, read-out: Minimum inhibitory concentration) | MIC (comparator antibiotics, clinical N. gonorrhoeae isolate 20, Sweden 2023, read-out: Minimum inhibitory concentration) | MIC (comparator antibiotics, clinical N. gonorrhoeae isolate 21, Sweden 2023, read-out: Minimum inhibitory concentration) | MIC (comparator antibiotics, clinical N. gonorrhoeae isolate 36, Sweden 2023, read-out: Minimum inhibitory concentration) | MIC (comparator antibiotics, clinical N. gonorrhoeae isolate 43, Sweden 2023, read-out: Minimum inhibitory concentration) | MIC (comparator antibiotics, clinical N. gonorrhoeae isolate 44, Sweden 2023, read-out: Minimum inhibitory concentration) | MIC (comparator antibiotics, clinical N. gonorrhoeae isolate 49, Sweden 2023, read-out: Minimum inhibitory concentration) | MIC (comparator antibiotics, clinical N. gonorrhoeae isolate 54, Sweden 2023, read-out: Minimum inhibitory concentration) | MIC (comparator antibiotics, clinical N. gonorrhoeae isolate 55, Sweden 2023, read-out: Minimum inhibitory concentration) | MIC (comparator antibiotics, clinical N. gonorrhoeae isolate 60, Sweden 2023, read-out: Minimum inhibitory concentration) | MIC (comparator antibiotics, clinical N. gonorrhoeae isolate 64, Sweden 2023, read-out: Minimum inhibitory concentration) | MIC (comparator antibiotics, clinical N. gonorrhoeae isolate 74, Sweden 2023, read-out: Minimum inhibitory concentration) | MIC (comparator antibiotics, clinical N. gonorrhoeae isolate 75, Sweden 2023, read-out: Minimum inhibitory concentration) | MIC (comparator antibiotics, clinical N. gonorrhoeae isolate 84, Sweden 2023, read-out: Minimum inhibitory concentration) | MIC (comparator antibiotics, clinical N. gonorrhoeae isolate 88, Sweden 2023, read-out: Minimum inhibitory concentration) | MIC (comparator antibiotics, clinical N. gonorrhoeae isolate 92, Sweden 2023, read-out: Minimum inhibitory concentration) | MIC (comparator antibiotics, clinical N. gonorrhoeae isolate 95, Sweden 2023, read-out: Minimum inhibitory concentration)
2 µg/mL: MIC (WHO S2, Etest, read-out: MIC) | MIC (comparator antibiotics, clinical N. gonorrhoeae isolate 71, Sweden 2023, read-out: Minimum inhibitory concentration) | MIC (comparator antibiotics, clinical N. gonorrhoeae isolate 82, Sweden 2023, read-out: Minimum inhibitory concentration)
0.25 µg/mL: MIC (WHO F, Etest, read-out: MIC) | MIC (WHO H, Etest, read-out: MIC) | MIC (comparator antibiotics, clinical N. gonorrhoeae isolate 1, Sweden 2023, read-out: Minimum inhibitory concentration) | MIC (comparator antibiotics, clinical N. gonorrhoeae isolate 3, Sweden 2023, read-out: Minimum inhibitory concentration) | MIC (comparator antibiotics, clinical N. gonorrhoeae isolate 9, Sweden 2023, read-out: Minimum inhibitory concentration) | MIC (comparator antibiotics, clinical N. gonorrhoeae isolate 11, Sweden 2023, read-out: Minimum inhibitory concentration) | MIC (comparator antibiotics, clinical N. gonorrhoeae isolate 15, Sweden 2023, read-out: Minimum inhibitory concentration) | MIC (comparator antibiotics, clinical N. gonorrhoeae isolate 16, Sweden 2023, read-out: Minimum inhibitory concentration) | MIC (comparator antibiotics, clinical N. gonorrhoeae isolate 17, Sweden 2023, read-out: Minimum inhibitory concentration) | MIC (comparator antibiotics, clinical N. gonorrhoeae isolate 19, Sweden 2023, read-out: Minimum inhibitory concentration) | MIC (comparator antibiotics, clinical N. gonorrhoeae isolate 24, Sweden 2023, read-out: Minimum inhibitory concentration) | MIC (comparator antibiotics, clinical N. gonorrhoeae isolate 26, Sweden 2023, read-out: Minimum inhibitory concentration) | MIC (comparator antibiotics, clinical N. gonorrhoeae isolate 29, Sweden 2023, read-out: Minimum inhibitory concentration) | MIC (comparator antibiotics, clinical N. gonorrhoeae isolate 35, Sweden 2023, read-out: Minimum inhibitory concentration) | MIC (comparator antibiotics, clinical N. gonorrhoeae isolate 41, Sweden 2023, read-out: Minimum inhibitory concentration) | MIC (comparator antibiotics, clinical N. gonorrhoeae isolate 50, Sweden 2023, read-out: Minimum inhibitory concentration) | MIC (comparator antibiotics, clinical N. gonorrhoeae isolate 52, Sweden 2023, read-out: Minimum inhibitory concentration) | MIC (comparator antibiotics, clinical N. gonorrhoeae isolate 56, Sweden 2023, read-out: Minimum inhibitory concentration) | MIC (comparator antibiotics, clinical N. gonorrhoeae isolate 63, Sweden 2023, read-out: Minimum inhibitory concentration) | MIC (comparator antibiotics, clinical N. gonorrhoeae isolate 66, Sweden 2023, read-out: Minimum inhibitory concentration) | MIC (comparator antibiotics, clinical N. gonorrhoeae isolate 67, Sweden 2023, read-out: Minimum inhibitory concentration) | MIC (comparator antibiotics, clinical N. gonorrhoeae isolate 69, Sweden 2023, read-out: Minimum inhibitory concentration) | MIC (comparator antibiotics, clinical N. gonorrhoeae isolate 78, Sweden 2023, read-out: Minimum inhibitory concentration) | MIC (comparator antibiotics, clinical N. gonorrhoeae isolate 81, Sweden 2023, read-out: Minimum inhibitory concentration) | MIC (comparator antibiotics, clinical N. gonorrhoeae isolate 89, Sweden 2023, read-out: Minimum inhibitory concentration) | MIC (comparator antibiotics, clinical N. gonorrhoeae isolate 96, Sweden 2023, read-out: Minimum inhibitory concentration) | MIC (comparator antibiotics, clinical N. gonorrhoeae isolate 97, Sweden 2023, read-out: Minimum inhibitory concentration)
